# Patent US7235534B2, “Antisense strategy to modulate estrogen receptor response (ER α and/or ER β )” (Institut de Cardiologie de Montreal, priority 2001, dated 2007)
# System: p42/44 MAPK
# Experiment: Western blot of p42/44 MAPK phosphorylation in PSMC
# Assay type: cell-based, porcine
# Procedure: Confluent PAEC and PSMC were starved for 7 hours in DMEM and antibiotics. Culture medium was removed, and cells were rinsed twice with ice-cold DMEM. PSMC were incubated on ice in DMEM with or without 17βE (10^−8M) for 30 min, incubated at 37° C. for 5, 10, 15 and 30 min, then brought back on ice. Cell were then rinsed with cold DMEM, incubated on ice in DMEM, bovine serum albumin (1 mg/ml), PDGF-BB (10 ng/ml) for 30 min, incubated at 37° C. for 5 min, and then brought back on ice. PAEC were incubated on ice in DMEM with or without 17βE (10^−7M) for 30 min, then incubated at 37° C. for 5, 10, 15 and 30 min and brought back on ice. […] Total proteins were prepared by the addition of 500 μl of lysis buffer containing phenylmethylsulfonyl fluoride 1 mM, leupeptin 10 μg/ml, aprotinin 30 μg/ml, and NaVO3 1 mM (Sigma). Plates were incubated at 4° C. for 30 min and scraped, and the protein concentration was determined with a Bio-Rad protein kit (Bio-Rad, Hercules, Calif.). Same protein quantity for each cell type and condition were dissolved in Laemmli's buffer, boiled for 5 min in reducing conditions, separated by a 10% gradient SDS-PAGE (Protean II kit; Bio-Rad), and transblotted onto a 0.45-μm polyvinylidene difluoride membranes (Millipore Corp., Bedford, Mass.). The membranes were blocked in 5% Blotto-TTBS (5% nonfat dry milk; Bio-Rad), 0.05% Tween 20, 0.15 M NaCl, 25 mM Tris-HCl, pH 7.5) for 1 h at room temperature with gentle agitation and incubated overnight at 4° C. in 0.5% Blotto-TTBS with the addition of an anti-phospho p42/44 MAPK or an anti-phospho p38 MAPK rabbit polyclonal antiserums (α-pp42/44; dilution of 1:10 000, and α-pp38; dilution 1:5000, New England BioLabs, Beverly, Mass.). Membranes were washed with TTBS, and incubated at room temperature with an anti-rabbit IgG antibody coupled to horseradish peroxidase (dilution 1:10 000–1:20 000, Santa Cruz Biotechnology, Santa Cruz, Calif.) in 0.5% Blotto-TTBS for 30 min. […] Kaleidoscope molecular weight and SDS-plyacrylamide gel electrophoresis broad range marker proteins (Bio-Rad) were used as standards for SDS-plyacrylamide gel electrophoresis. Digital image densitometry (PDI Bioscience, Aurora, ON) was performed on x-ray film to determine relative percentages of p42/44 and p38 MAPK phosphorylation.
# Confluent PAEC and PSMC were preteated with or without antisense sequences as described above for Western Blot analysis. Cells were rinsed twice with ice-cold DMEM. PSMC and PAEC were stimulated with or without 17βE (10^−8 mol/L) as previously described (Geraldes P). […] Same quantity of protein was separated by a 10% gradient SDS-PAGE (Protean II kit; Bio-Rad), and transblotted onto a 0.45-μm polyvinylidene difluoride membranes (Millipore Corp.). […]
compound,measurement,setting,value
"C[C@]12CC[C@@H]3c4ccc(O)cc4CC[C@H]3[C@@H]1CC[C@@H]2O [17βE, 17-beta-estradiol]",time of maximum inhibition of PDGF-BB-induced p42/44 MAPK phosphorylation,"17βE 10^−8M pretreatment, PDGF-BB 5 minutes",30 min
same,reversal of PDGF-BB-increased p42/44 MAPK phosphorylation,"17βE 10^−8 mol/L 30 minutes, Example 2",reversed
same,reduction of PDGF-BB induced phosphorylation of p42/44 MAPK,17βE for 30 min,100%
same,change in basal phosphorylation of p42/44 MAPK,"substance alone, data not shown",did not observe any change
